Measured values reported in patent US12285503B2, “Methods and reagents for tumor targeting with greater efficacy and less toxicity” (CORNELL UNIVERSITY, priority 2017, dated 2025).

How the values were obtained:
LNCaP cells = assay: Internalization assay, LNCaP cells; assay type: cell-based; details: 1 hour at 37° C.
Protocol: (§1) Internalization assay. LNCaP and CWR22Rv1 cells were trypsinized and aliquoted into tubes at 1×10^6 cells per tube. Cells were washed once with RPMI (no FBS). ^177Lu-J591 (150,000 CPM) in […] RPMI (no FBS) per tube and/or ^177Lu-PSMA-617 (110,000 CPM) was added in […] RPMI (no FBS) per tube. The samples were incubated for 1 hour at 37° C., with the cells re-suspended every 15 minutes. After incubation, the cells were washed twice with 0.1% BSA/PBS to remove unbound/un-internalized binding agents. Samples were counted.

[1] = limit to the kidney and salivary glands; cited from earlier work
CWR22Rv1 cells = assay: Internalization assay, CWR22Rv1 cells; assay type: cell-based; details: 1 hour at 37° C.
Protocol: as §1

PSMA [2] = biological target: T1, PSMA (Homo sapiens, UniProt Q04609); assay: Normal tissue bio-distribution / organ radioactive dose of PSMA-targeting agents in patients; assay type: in vivo
T1 construct: when treating prostate cancer patients with PSMA-617-Ac^225 has been reported; host or cells: prostate cancer patients (Kratochwil et al., J. Nucl. Med. 2017)
T1 sequence (Q04609 whole entry): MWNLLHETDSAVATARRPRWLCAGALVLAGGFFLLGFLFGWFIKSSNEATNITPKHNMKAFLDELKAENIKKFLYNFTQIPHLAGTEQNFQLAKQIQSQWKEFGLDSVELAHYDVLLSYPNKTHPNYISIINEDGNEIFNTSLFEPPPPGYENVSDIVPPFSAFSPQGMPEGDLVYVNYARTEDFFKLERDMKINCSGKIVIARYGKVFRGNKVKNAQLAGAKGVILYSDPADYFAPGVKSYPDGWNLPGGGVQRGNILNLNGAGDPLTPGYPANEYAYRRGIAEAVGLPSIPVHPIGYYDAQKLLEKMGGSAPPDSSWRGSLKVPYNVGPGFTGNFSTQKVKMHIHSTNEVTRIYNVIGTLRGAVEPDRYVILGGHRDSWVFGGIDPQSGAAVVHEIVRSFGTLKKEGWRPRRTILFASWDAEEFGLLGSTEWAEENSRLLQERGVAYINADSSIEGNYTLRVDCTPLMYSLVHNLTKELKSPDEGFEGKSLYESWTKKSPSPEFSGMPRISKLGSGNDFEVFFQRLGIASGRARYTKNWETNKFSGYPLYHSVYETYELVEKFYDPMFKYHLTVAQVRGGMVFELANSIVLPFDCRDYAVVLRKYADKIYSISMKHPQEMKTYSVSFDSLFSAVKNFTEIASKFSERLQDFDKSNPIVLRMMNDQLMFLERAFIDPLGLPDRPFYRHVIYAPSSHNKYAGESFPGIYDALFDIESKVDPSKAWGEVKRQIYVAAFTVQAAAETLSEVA
Text: While the two different classes of agents both bind to their target (e.g., PSMA, SSTR-2, CD20, etc)-expressing tumor cells, the normal tissues that get targeted differs between classes of agents. As an example, PSMA is expressed not only by prostate cancer cells but also by the normal parotid and other salivary glands, lacrimal glands, kidney and small bowel (See FIGS. 4-7). […] With both types of agents, the tumor sites are targeted, but the normal tissues that are targeted are different and virtually mutually exclusive.

PSMA [3] = biological target: T1, PSMA; assay: PSA declines as indication of anti-tumor activity in patients; assay type: in vivo
Text: J591-Lu^177 begins to induce PSA declines, as an indication of anti-tumor activity, at an administered ^177Lu dose of ≤30 mCi/m^2 given twice at a 2 week interval. As the dose is increased to 140, 160 and 180 mCi [total], the magnitude of the PSA/anti-tumor response gets progressively greater.
PSMA-617/ligand-Lu^177 begins to induce PSA declines at an administered cumulative ^177Lu dose of 300 mCi (11.1 Gbq) given in a 2-dose regimen at a 2 week interval (150 mCi×2). As the dose is increased to 2-dose totals of 400-500 mCi (14.8-18.5 GBq), the magnitude of the PSA/anti-tumor response gets progressively greater.

PSMA [4] = biological target: T1, PSMA; details: cited from earlier work

Row | Compound | 177Lu internalization (LNCaP cells) | maximum safe cumulative dose [1] | 177Lu internalization (CWR22Rv1 cells) | dose to the bone marrow / thrombocytopenia (PSMA [2]) | administered cumulative 177Lu dose at which PSA declines begin (PSMA [3]; 2-dose regimen at a 2 week interval) [Gbq] | administered cumulative 177Lu dose at which PSA declines begin (PSMA [3]; 2-dose regimen at a 2 week interval (150 mCi×2)) [mCi] | tolerable dose (PSMA [4]; human, in vivo) [Kbq/kg] | treatment activity above which severe xerostomia becomes the dose-limiting toxicity (PSMA [4]; human, in vivo) | anti-tumor response (PSMA [4]; treatment activity 50 kBq/kg, patients with high tumor burden) | toxicity (PSMA [4]; treatment activity 50 kBq/kg)
1 | O=C([O-])CN1CCN(CC(=O)[O-])CCN(CC(=O)NCC2CCC(C(=O)N[C@@H](Cc3ccc4ccccc4c3)C(=O)NCCCC[C@H](NC(=O)N[C@@H](CCC(=O)O)C(=O)O)C(=O)O)CC2)CCN(CC(=O)[O-])CC1.[177Lu+3] (stereo partly shown) [PSMA-617-^177Lu] | internalized to a similar degree | 27-30 Gbq | internalized to a similar degree | does not cause thrombocytopenia | 11.1 | 300 | – | – | – | –
2 | O=C([O-])CC[C@H](NC(=O)N[C@@H](CCCCNC(=O)[C@H](Cc1ccc2ccccc2c1)NC(=O)C1CCC(CNC(=O)CN2CCN(CC(=O)[O-])CCN(CC(=O)[O-])CCN(CC(=O)[O-])CC2)CC1)C(=O)[O-])C(=O)[O-].[225Ac].[H+].[H+].[H+] (stereo partly shown) [PSMA-617-Ac^225] | – | – | – | – | – | – | 100 | exceeded 100 kBq/kg per cycle | insufficient anti-tumor response | without toxicity
